A short description of experiment [1]: Free radical scavenging ability (antioxidant effect), DPPH test. Format: biochemical. As to conditions: 30 minutes. As to the method:
2,2-diphenyl-1-picrylhydrazyl (DPPH) was dissolved in 99.5% ethanol to a concentration of 0.1 mM. Sulfuretin was dissolved and diluted in ethanol to concentrations of 0.1, 1, 5, 10, 25, 50 and 100 μg/ml. 10 μl of the sample was added to 90 μl of DPPH and admixed several times with a pipette, and the mixture was incubated at room temperature for 30 minutes, and the absorbance at 517 nm was measured.

In the next experiment the test system is PC12 cells. Nature of the experiment: MTT (cell viability) test, corticosterone-induced cell death in PC12 cells. Format: cell-based. As to conditions: Rattus norvegicus. As to the method: For the experiment shown in FIG. 3, PC12 cells were cultured in DMEM medium (Hyclone, Thermo, USA) containing 10% FBS, 5% horse serum and antibiotics (Gibco-BRL, USA). […] The concentration of corticosterone was determined to be 400 μM after evaluation of cell viability.

For another experiment, the system named is SH-SY5Y and PC12 cells. Nature of the experiment: MTT (cell viability) test, SNP-induced cell death. Format: cell-based.
Experiment [2] has as its system SH-SY5Y cells. As to the kind of experiment: Inhibition of ROS production (DCFH-DA fluorescence). Format: cell-based, human. As to conditions: hydrogen peroxide-induced, 2 hours pretreatment. As to the method:
The incubator was maintained at a temperature of 37° C., and a mixed gas of 95% air and 5% CO2 was continuously supplied thereto to provide suitable conditions for cell culture. The cells were cultured in a 6-well plate or a 96-well plate at each of densities of 1×10^6 and 2×10^4 cells/well 24 hours before the experiment. […] Sulfuretin was used in ethanol and used at a final concentration of 0.1% or less.
In order to measure ROS elimination activity, cells were labeled with DCFH-DA fluorescence, and quantitative analysis was performed using a fluorescence meter.
Specifically, the 6-well plate in which the cells have been cultured was pretreated with sulfuretin for 2 hours, and then reacted with hydrogen peroxide for 30 minutes to induce ROS. Then, 10 μl of 10 mM DCFH-DA was added to the plate and allowed to react with the cells for 30 minutes. Herein, DCFH-DA in the incubator was covered with a foil such that it would not be exposed to light. The cells that reacted with the DCFH-DA fluorescent substance were detached using cold PBS and centrifuged at 400 g for 3 minutes. The centrifugation process was repeated twice to wash the fluorescent substance. The washed cells were briefly stirred with 1 ml of PBS, and 100 μl was dispensed into each of a fresh 96-well plate. Then, fluorescence was measured at an excitation wavelength of 488 nm and an emission wavelength of 515 nm using a fluorescence meter (Perkinelmer, USA).
The measured value was substituted into the following equation to calculate ROS production:
ROS production (%)=[(O.D. of control−O.D. of test group)/O.D. of control]×100

Experiment [3] has as its system SH-SY5Y cells. Nature of the experiment: MTT assay, amyloid beta25-35-induced cell death. Format: cell-based, human. As to conditions: pretreated with sulfuretin at 2.5, 5, 10 and 20 μM for 30 minutes, then 20 μM amyloid beta25-35 for 24 hours (p<0.05 and p<0.001). Here is the method:
For the experiments shown in FIGS. 11 to 13, SH-SY5Y and stable swedish APP mutant SH-SY5Y cells were grown in DMEM supplemented with 10% heat-inactivated FBS and 0.1% penicillin/streptomycin at 37° C. in a humidified atmosphere of 5% CO2 and 95% air. Cells were fed every three days and sub-cultured once they reached 80-90% confluency in […] cell culture dishes. Amyloid beta25-35 was prepared as a 20 mM stock immediately before use and diluted in PBS to the indicated final concentration. Prior to use, amyloid beta25-35 was dissolved in sterilized distilled water and was aggregated at 37° C. for five days. The test compounds were dissolved in DMSO and the stock solutions were added directly to the culture media to a final concentration of 0.1% (v/v) DMSO.
First of all, MTT assay was performed to determine the neuroprotective effects of sulfuretin on amyloid beta25-35-induced cell death. […] The dark-blue formazan crystals formed in intact cells were dissolved in DMSO, and the absorbance at 540 nm was measured with a microplate reader (SpectraMax 250, Molecular Device, Sunnyvale, Calif., USA). The results were expressed as the percentage of MIT reduction relative to the absorbance of control cells.
On the technique in general: Tetrazolium assays rely on reduction of a dye to a coloured formazan, in cell work by metabolically active cells.

The viability is a read-out of living cells in per cent, often relative to untreated cells. For `O=C1/C(=C/c2ccc(O)c(O)c2)Oc2cc(O)ccc21` [sulfuretin], the “free radical scavenging ability (inhibition)” value in experiment [1] (sulfuretin 0.1 μg/ml) is on record as no less than 10%; in experiment [1] (sulfuretin 1 μg/ml), no less than 18%; in experiment [1] (sulfuretin 5 μg/ml) it was no less than 58%; in experiment [1] (sulfuretin 10 μg/ml) it was no less than 70%; in experiment [1] (sulfuretin 25 μg/ml) it was no less than 71%; in experiment [1] (sulfuretin 50 μg/ml), no less than 73%. Further, the “free radical scavenging ability (inhibition)” value in experiment [1] (sulfuretin 100 μg/ml) is given as no less than 75%. Further, the viability at 0.1 µg/mL in the experiment with PC12 cells (PC-12, read-out: cell viability) is no less than 52%; with SH-SY5Y and PC12 cells (sulfuretin 0.1 μg/ml) it was no less than 44%. The viability at 0.5 µg/mL in the experiment on PC12 cells (PC-12, corticosterone-induced cell death, sulfuretin 0.5 μg/ml) is no less than 55%; with SH-SY5Y and PC12 cells (sulfuretin 0.5 μg/ml), no less than 56%. Further, the viability at 1 µg/mL with PC12 cells (PC-12, corticosterone-induced cell death, sulfuretin 1 μg/ml) is no less than 72%; in the experiment with SH-SY5Y and PC12 cells (sulfuretin 1 μg/ml), no less than 64%. The viability at 5 µg/mL was no less than 90% in the experiment on PC12 cells (PC-12, corticosterone-induced cell death, sulfuretin 5 μg/ml); no less than 163% in the experiment with SH-SY5Y and PC12 cells (sulfuretin 5 μg/ml). Further, the ROS production in the experiment with SH-SY5Y cells [2] (sulfuretin 0.1 μg/ml) is no more than 147%; in the experiment with SH-SY5Y cells [2] (sulfuretin 0.5 μg/ml), no more than 126%; with SH-SY5Y cells [2] (sulfuretin 1 μg/ml), no more than 123%; in the experiment on SH-SY5Y cells [2] (sulfuretin 5 μg/ml), no more than 103%. For the same compound, the “cell viability (MTT reduction)” value in the experiment on SH-SY5Y cells [3] is listed as “significantly increased”.

The record behind these values is patent US20150031760A1, “PHARMACEUTICAL COMPOSITION FOR PREVENTING OR TREATING NERVOUS SYSTEM DISORDERS COMPRISING SULFURETIN OR PHARMACEUTICALLY ACCEPTABLE SALT THEREOF” (Research and Business Foundation SUNGKYUNKWAN UNIVERSITY, priority 2010, published 2015).
